Details: 101.3 kPa, Liquid, Vibrating tube method

NCCCO [3-amino-1-propanol]
Details | mass density [kg/m3]
293.15 K | 987.5
298.15 K | 983.6
303.15 K | 979.6
308.15 K | 975.5
313.15 K | 971.5
318.15 K | 967.5
323.15 K | 963.4
328.15 K | 959.3
333.15 K | 955.8
338.15 K | 951.7
343.15 K | 947.6
348.15 K | 943.5
353.15 K | 939.3

Reference: the NIST ThermoML archive (doi:10.1021/acs.jced.5b00412)
